The numbers were not newly measured in patent publication US10668058B2, “Device and method for delivery of a medicament” (Philip Morris Products S.A., priority 2007, dated 2020), which cites them from elsewhere.

The conditions of this series: 25° C.

As to `CN1CCCC1c1cccnc1` (stereo not shown) [Nicotine only, Nicotine], the vapor pressure is 0.04 mm Hg.
